Experimental data reported in patent publication US20140057895A1, “INDAZOLE- AND PYRROLOPYRIDINE-DERIVATIVE AND PHARMACEUTICAL USE THEREOF” (priority 2011, published 2014).

How the values were obtained:
[1] = target: T1, Human 5-HT4 receptor (5-HT4b) (Homo sapiens, UniProt Q13639); test: Test Example 3: Human 5-HT4 receptor binding assay, membranes of CHO-K1 cells stably expressing 5-HT4b receptors (Table 99); settings: mean value of each group
T1 construct: expressed in transfected cells; membrane preparation
Procedure: To an assay tube were added 0.1 nM [^3H]-GR113808 {chemical name: [1-[2-(methylsulfonylamino) ethyl]-4-piperidinyl]methyl 1-methylindole-3-carboxylate}, receptor membrane preparations, and Hepes buffer (50 mM, pH 7.4, 4° C., 1 ml) containing test compounds or 30 μM serotonin; and the mixture was incubated at 37° C. for 30 minutes. On quenching the reaction, the mixture was rapidly filtered on whatman GF/B filter, which was presoaked in 0.1% polyethyleneimine for 1 hour, by using Brandel cell Harvester, and washed with ice-cooled 50 mM Tris-HCl (pH 7.7, 4 ml) three times. To the filter after filtration was added a liquid scintillator (Ecoscint), and then a radioactivity was determined by a liquid scintillation counter.
50% Inhibition concentrations (IC50) were determined from inhibition rates of test compounds to specific bindings which were obtained by subtracting nonspecific bindings from total binding amounts of [^3H]-GR113808.
Human 5-HT4 receptor membrane preparations were prepared from CHO-K^1 cells which stably express 5-HT4b receptors, and human 5-HT4 receptor binding assay was carried out in a similar manner as in the guinea pig 5-HT4 receptor binding assay. The following tables show results of serotonin 4 (5-HT4) receptor binding assay. In the following tables, the compounds used in the test are shown in numbers which correspond to the Example numbers above where the preparations of the compounds are described.

[2] = target: T2, human 5-HT4b receptor (Homo sapiens, UniProt Q13639); test: Test Example 4: Serotonin 4 (5-HT4) receptor agonist activity assay, cAMP HTRF in CHO cells (Table 100); format: cell-based; settings: mean value; for Emax: CHO, 0.25 h, intrinsic activity, maximal activity of 5-HT defined as 100%, read-out: IA (%); for EC50: concentration showing 50% of IA
T2 construct: expressed in transfected cells; host or cells: CHO cells (G418 selection)
In short: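 Read-out is HTRF cAMP (time-resolved fluorescence 620/665 nm after 1 h RT with cAMP-cryptate and cAMP-d2), from recombinant CHO cells bearing human 5-HT4b treated with compound 15 min at 31° C. in Hanks/HEPES buffer pH 7.4. IA (%) scaled to peak 5-HT effect over 10^−11–10^−7 M; EC50 is concentration giving half that IA.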

T1 sequence (Q13639 whole entry): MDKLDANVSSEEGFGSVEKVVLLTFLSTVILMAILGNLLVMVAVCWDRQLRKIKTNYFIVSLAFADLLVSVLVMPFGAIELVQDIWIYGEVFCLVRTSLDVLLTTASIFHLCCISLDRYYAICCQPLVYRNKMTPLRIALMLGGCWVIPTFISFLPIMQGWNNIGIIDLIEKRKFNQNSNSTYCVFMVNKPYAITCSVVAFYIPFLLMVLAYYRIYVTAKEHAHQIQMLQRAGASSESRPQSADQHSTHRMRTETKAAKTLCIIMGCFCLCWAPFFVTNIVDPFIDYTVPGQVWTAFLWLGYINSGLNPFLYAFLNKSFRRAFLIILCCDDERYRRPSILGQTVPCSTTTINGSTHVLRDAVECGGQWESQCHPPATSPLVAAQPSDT
T2 sequence (Q13639 whole entry): as above

IC50 [1] | Emax [2] | EC50 [2] | SMILES
< 20 nM | 103% | 9.1 nM | CC(C)c1nn(-c2noc(C3CC(NCC4CCOCC4)C3)n2)c2c(F)cccc12 (stereo not drawn) [Example 610, 3-{3-[7-fluoro-3-(propan-2-yl)-1H-indazol-1-yl]-1,2,4-oxadiazol-5-yl}-N-(tetrahydro-2H-pyran-4-ylmethyl)cyclobutanamine]
< 20 nM | 58% | 4.7 nM | CC(C)c1nn(-c2noc(C[C@H]3CCN(C[C@H]4CCN(C(=O)CO)C4)C3)n2)c2c(F)cccc12 [Example 544, 1-[(3R)-3-{[(3R)-3-({3-[7-fluoro-3-(propan-2-yl)-1H-indazol-1-yl]-1,2,4-oxadiazol-5-yl}methyl)pyrrolidin-1-yl]methyl}pyrrolidin-1-yl]-2-hydroxyethanone]
< 20 nM | 70% | 3.5 nM | CC(C)c1nn(-c2noc(C[C@H]3CCN(CC4CN(S(C)(=O)=O)C4)C3)n2)c2c(F)cccc12 [Example 502, 7-fluoro-1-(5-{[(3R)-1-{[1-(methylsulfonyl)azetidin-3-yl]methyl}pyrrolidin-3-yl]methyl}-1,2,4-oxadiazol-3-yl)-3-(propan-2-yl)-1H-indazole]
< 20 nM | 75% | 1.5 nM | CCc1nn(-c2noc(C3CCN(C4(C)CCN(C(=O)N(C)C)CC4)CC3)n2)c2c(F)cccc12 [Example 493, 4-[3-(3-ethyl-7-fluoro-1H-indazol-1-yl)-1,2,4-oxadiazol-5-yl]-N,N,4′-trimethyl-1,4′-bipiperidine-1′-carboxamide]
< 20 nM | 52% | 5.5 nM | CC(=O)N1CC[C@H](CN2CC[C@H](Cc3nc(-n4nc(C(C)C)c5cccc(F)c54)no3)C2)C1 [Example 505, 1-[(3R)-3-{[(3R)-3-({3-(7-fluoro-3-(propan-2-yl)-1H-indazol-1-yl]-1,2,4-oxadiazol-5-yl}methyl)pyrrolidin-1-yl]methyl}pyrrolidin-1-yl]ethanone]
< 20 nM | 106% | 2.9 nM | CC(C)c1nn(-c2noc(C3CCN(C4(C)CCN(S(C)(=O)=O)CC4)CC3)n2)c2c(F)cccc12 [Example 488, 4-{3-[7-fluoro-3-(propan-2-yl)-1H-indazol-1-yl]-1,2,4-oxadiazol-5-yl}-4′-methyl-1′-(methylsulfonyl)-1,4′-bipiperidine]
< 20 nM | 92% | 3.7 nM | CC(C)c1nn(-c2noc(C[C@H]3CCN(C[C@@H]4CCN(C(=O)CO)C4)C3)n2)c2c(F)cccc12 [Example 543, 1-[(3S)-3-{[(3R)-3-({3-[7-fluoro-3-(propan-2-yl)-1H-indazol-1-yl]-1,2,4-oxadiazol-5-yl}methyl)pyrrolidin-1-yl]methyl}pyrrolidin-1-yl]-2-hydroxyethanone]
< 20 nM | 82% | 4.1 nM | CC(C)c1nn(-c2noc([C@H]3C[C@@H](NCC4CCCO4)C3)n2)c2c(F)cccc12 (relative stereo) [Example 596, cis-3-{3-[7-fluoro-3-(propan-2-yl)-1H-indazol-1-yl]-1,2,4-oxadiazol-5-yl}-N-(tetrahydrofuran-2-ylmethyl)cyclobutanamine]
< 20 nM | 51% | 9.6 nM | CC(=O)N1CCC[C@@H]1CN1CC[C@@H](Cc2nc(-n3nc(C(C)C)c4cccc(F)c43)no2)C1 [Example 511, 1-[(2R)-2-{[(3S)-3-({3-[7-fluoro-3-(propan-2-yl)-1H-indazol-1-yl]-1,2,4-oxadiazol-5-yl}methyl)pyrrolidin-1-yl]methyl}pyrrolidin-1-yl]ethanone]
27.4 nM | 56% | 16.3 nM | CC(=O)N1CCC[C@H]1CN1CC[C@@H](Cc2nc(-n3nc(C(C)C)c4cccc(F)c43)no2)C1 [Example 509, 1-[(2S)-2-{[(3S)-3-({3-[7-fluoro-3-(propan-2-yl)-1H-indazol-1-yl]-1,2,4-oxadiazol-5-yl}methyl)pyrrolidin-1-yl]methyl)pyrrolidin-1-yl]ethanone]
< 20 nM | 114% | 5.7 nM | O=C(CO)N1CCC(N2CCC(c3nc(-n4nc(C5CCC5)c5cccc(F)c54)no3)CC2)CC1 [Example 527, 1-{4-[3-(3-cyclobutyl-7-fluoro-1H-indazol-1-yl)-1,2,4-oxadiazol-5-yl]-1,4′-bipiperidin-1′-yl}-2-hydroxyethanone]
< 20 nM | 84% | 3.5 nM | CC(=O)N1CC(CN2CC[C@H](Cc3nc(-n4nc(C(C)C)c5cccc(F)c54)no3)C2)C1 [Example 501, 1-(3-{[(3R)-3-({3-[7-fluoro-3-(propan-2-yl)-1H-indazol-1-yl]-1,2,4-oxadiazol-5-yl}methyl)pyrrolidin-1-yl]methyl}azetidin-1-yl)ethanone]
< 20 nM | 78% | 2.9 nM | CCc1nn(-c2noc(C3CCN(C4(C)CCN(S(C)(=O)=O)CC4)CC3)n2)c2c(F)cccc12 [Example 492, 4-[3-(3-ethyl-7-fluoro-1H-indazol-1-yl)-1,2,4-oxadiazol-5-yl]-4′-methyl-1′-(methylsulfonyl)-1,4′-bipiperidine]
< 20 nM | 24% | 2.9 nM | O=C(CO)N1CCC(N2CCC(c3nc(-n4nc(C5CC5)c5cccc(F)c54)no3)CC2)CC1 [Example 523, 1-{4-[3-(3-cyclopropyl-7-fluoro-1H-indazol-1-yl)-1,2,4-oxadiazol-5-yl]-1,4′-bipiperidin-1′-yl}-2-hydroxyethanone]
< 20 nM | 104% | 2.5 nM | CC(C)c1nn(-c2noc(C3CCN(C4(C)CCN(C(=O)N(C)C)CC4)CC3)n2)c2c(F)cccc12 [Example 489, 4-{3-[7-fluoro-3-(propan-2-yl)-1H-indazol-1-yl]-1,2,4-oxadiazol-5-yl}-N,N,4′-trimethyl-1,4′-bipiperidine-1′-carboxamide]
< 20 nM | 105% | 2.2 nM | CC(C)c1nn(-c2noc(C3CCN(C[C@H]4CCN(S(C)(=O)=O)C4)CC3)n2)c2c(F)cccc12 [Example 586, 7-fluoro-1-[5-(1-{[(3R)-1-(methylsulfonyl)pyrrolidin-3-yl]methyl}piperidin-4-yl)-1,2,4-oxadiazol-3-yl]-3-(propan-2-yl)-1H-indazole]
< 20 nM | 93% | 10.9 nM | COCCN(C1CCOCC1)[C@H]1C[C@@H](c2nc(-n3nc(C(C)C)c4cccc(F)c43)no2)C1 [Example 614, N-(cis-3-{3-[7-fluoro-3-(propan-2-yl)-1H-indazol-1-yl]-1,2,4-oxadiazol-5-yl}cyclobutyl)-N-(2-methoxyethyl)tetrahydro-2H-pyran-4-amine]
< 20 nM | 91% | 3.7 nM | CCc1nn(-c2noc(C3CCN(C[C@@H]4CCN(C(=O)CO)C4)CC3)n2)c2c(F)cccc12 [Example 582, 1-[(3S)-3-({4-[3-(3-ethyl-7-fluoro-1H-indazol-1-yl)-1,2,4-oxadiazol-5-yl]piperidin-1-yl}methyl)pyrrolidin-1-yl]-2-hydroxyethanone]
< 20 nM | 111% | 1.6 nM | COCC(=O)N1CCC(C)(N2CCC(c3nc(-n4nc(C(C)C)c5cccc(F)c54)no3)CC2)CC1 [Example 490, 1-(4-{3-[7-fluoro-3-(propan-2-yl)-1H-indazol-1-yl]-1,2,4-oxadiazol-5-yl}-4′-methyl-1,4′-bipiperidin-1′-yl)-2-methoxyethanone]
